Laboratory results: patent US4001272A, “Herbicidal 2-fluoro-4-halo-phenyl-4,5,6,7-tetrahydro-2H-isoindole-1,3-diones” (E. I. Du Pont de Nemours and Company, priority 1974, dated 1977)

How the values were obtained:
Type in all cases: in vivo
[1] = system: pigweed (Amaranthus spp.); assay: Test A: field test, percent weed control of pigweed; details: seven weeks after treatment
Description: (§1) In test A, soybeans, peanuts, lima beans, green beans and squash were planted in a field infested with the following weed seeds: crabgrass (Digitaria sanquinalis), foxtails (Setaria spp.), barnyardgrass (Echinochloa crusgalli), pigweed (Amaranthus spp.), ragweed (Ambrosia artemisiifolia), velvetleaf (Abutilon theophrasti), purslane (Portulaca oleracea) and flower-of-an-hour (Hibiscus trionum). A 50% wettable powder formulation of 2-(4-chloro-2-fluorophenyl)-4,5,6,7-tetrahydro-2H-isoindole-1,3-dione was applied in the form of an aqueous suspension at rates of 0.125, 0.25, 0.5 and 1.0 kg/ha, each treatment replicated twice. The plots were rated for percent weed control and crop response seven weeks after treatment. Crop response was expressed on a scale of 0 = no injury to 10 = complete kill.

[2] = system: crabgrass (Digitaria sanquinalis); assay: Test A: field test, percent weed control of crabgrass; details: seven weeks after treatment
Description: as §1

squash = assay: Test A: field test, crop response of squash; details: seven weeks, 0 = no injury to 10 = complete kill
Description: as §1

[3] = system: ragweed (Ambrosia artemisiifolia); assay: Test A: field test, percent weed control of ragweed; details: seven weeks after treatment
Description: as §1

[4] = system: flower-of-an-hour (Hibiscus trionum); assay: Test A: field test, percent weed control of flower-of-an-hour; details: seven weeks after treatment
Description: as §1

lima beans = assay: Test A: field test, crop response of lima beans; details: seven weeks, 0 = no injury to 10 = complete kill
Description: as §1

naturally emerging weeds = assay: Test B: control of naturally emerging weeds, comparison of treatments
Description: Test B involved a field sown to carrots and in which the following weed species emerged naturally: crabgrass (Digitaria sanquinalis), foxtails (Setaria spp.), barnyardgrass (Echinochloa crusgalli), pigweed (Amaranthus spp.), ragweed (Ambrosia artemisiifolia), velvetleaf (Abutilon theophrasti), smartweed (Polygonum spp.) and lambsquarters (Chenopodium album). Sixteen days after sowing, when all species of weeds had emerged, the plants were sprayed overall with a 50% wettable powder formulation of 2-(4-chloro-2-fluorophenyl)4,5,6,7-tetrahydro-2H-isoindole-1,3dione (Treatment I) in the form of an aqueous suspension, at rates of 0.5, 1.0, 2.0 and 4.0 kg/ha, and with 2-(4-chlorophenyl)-4,5,6,7-tetrahydro-2H-isoindole-1,3-dione (Treatment II) in the same form and at the same rates. The spray volume was 425 l/ha. The surfactant Tween 20* was added to all treatments in a concentration of 0.1% by weight. Six weeks after treatment, visual observations were made of percent weed control obtained and, for carrots, crop response.
*Tween 20 -- A trademark of ICI of America which is the reaction product of sorbitan monolaurate with an average of 20 moles of ethylene oxide.

[5] = system: barnyardgrass (Echinochloa crusgalli); assay: Test A: field test, percent weed control of barnyardgrass; details: seven weeks after treatment
Description: as §1

[6] = system: purslane (Portulaca oleracea); assay: Test A: field test, percent weed control of purslane; details: seven weeks after treatment
Description: as §1

O=C1C2=C(CCCC2)C(=O)N1c1ccc(Cl)cc1F [Treatment I, 2-(4-chloro-2-fluorophenyl)-4,5,6,7-tetrahydro-2H-isoindole-1,3-dione]
% Control, Pigweed ([1]; 0.125 kg/ha): 90% | % Control, Pigweed ([1]; 0.25 kg/ha): 98% | % Control, Pigweed ([1]; 0.50 kg/ha): 95% | % Control, Pigweed ([1]; 1.00 kg/ha): 100% | % Control, Crabgrass ([2]; 0.125 kg/ha): 60% | % Control, Crabgrass ([2]; 0.25 kg/ha): 94% | % Control, Crabgrass ([2]; 0.50 kg/ha): 99% | % Control, Crabgrass ([2]; 1.00 kg/ha): 99% | Crop Response, Squash (squash; 0.125 kg/ha): 2 | Crop Response, Squash (squash; 0.25 kg/ha): 2 | Crop Response, Squash (squash; 0.50 kg/ha): 6 | Crop Response, Squash (squash; 1.00 kg/ha): 9.5 | % Control, Ragweed ([3]; 0.125 kg/ha): 90% | % Control, Ragweed ([3]; 0.25 kg/ha): 99% | % Control, Ragweed ([3]; 0.50 kg/ha): 99% | % Control, Ragweed ([3]; 1.00 kg/ha): 100% | % Control, Flower-of-an-Hour ([4]; 0.125 kg/ha): 87% | % Control, Flower-of-an-Hour ([4]; 0.25 kg/ha): 99% | % Control, Flower-of-an-Hour ([4]; 0.50 kg/ha): 99% | % Control, Flower-of-an-Hour ([4]; 1.00 kg/ha): 100% | Crop Response, Lima beans (lima beans; 0.125 kg/ha): 0 | Crop Response, Lima beans (lima beans; 0.25 kg/ha): 1 | Crop Response, Lima beans (lima beans; 0.50 kg/ha): 4 | Crop Response, Lima beans (lima beans; 1.00 kg/ha): 8.5 | control of crabgrass, foxtails and barnyardgrass, in words (naturally emerging weeds; compared to Treatment II): outstanding when compared to Treatment II | % control results, in words (naturally emerging weeds; eight naturally emerging weeds, versus Treatment II): clearly superior to Treatment II | % Control, Barnyardgrass ([5]; 0.125 kg/ha): 45% | % Control, Barnyardgrass ([5]; 0.25 kg/ha): 82% | % Control, Barnyardgrass ([5]; 0.50 kg/ha): 98% | % Control, Barnyardgrass ([5]; 1.00 kg/ha): 99% | % Control, Purslane ([6]; 0.125 kg/ha): 82% | % Control, Purslane ([6]; 0.25 kg/ha): 97% | % Control, Purslane ([6]; 0.50 kg/ha): 100% | % Control, Purslane ([6]; 1.00 kg/ha): 100%
